From ChEMBL document CHEMBL1201862, “PubChem BioAssay data set” (2004) come the findings set out here.

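Grown in 96-well plates, cells were treated for 48 hours with each compound at five concentrations. Insufficient inhibition: endpoint recorded as highest concentration tested. GI50 = concentration required for 50% inhibition of growth.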 Activity calls are given as the source filed them. No stated cut-off is given here; in the data, active = GI50 up to about 1.1 µM and inactive = higher.

Some test systems named below: RPMI-8226; RXF 393; SF-295; IGROV-1; A498; Malme-3M; SNB-75; MDA-MB-435; MDA-MB-231; HT-29; U-251; NCI-H522; SK-MEL-28; EKVX; UACC-257; CCRF-CEM; HOP-92.
Common to all, as to assay: inhibition of tumour cell growth, NCI panel, 48 h

For the compound `Cc1cc2c(c(S(=O)(=O)c3ccc(Cl)cc3[N+](=O)[O-])c1)NCCC2`, the GI50 with RPMI-8226 is 58.5 µM (inactive); in the assay with RXF 393, > 100 µM (inactive); in the assay on SF-295 it was 53.2 µM (inactive); with IGROV-1, > 100 µM (inactive); in the assay with A498 it was > 100 µM (inactive); in the assay with Malme-3M, > 100 µM (inactive). Also, the GI50 in the assay with SNB-75 was > 100 µM (inactive); in the assay with MDA-MB-435, 42.9 µM (inactive); with MDA-MB-231 it was > 100 µM (inactive); with HT-29 it was 66.1 µM (inactive); in the assay on U-251, > 100 µM (inactive); in the assay on NCI-H522, 18.2 µM (inactive). The GI50 in the assay with SK-MEL-28 and in the assay with EKVX was > 100 µM (inactive) in each case.

As for `NC1CC(=O)c2cc(Br)sc21` (stereo not drawn), the GI50 in the assay on RPMI-8226, in the assay on RXF 393, in the assay with UACC-257, with IGROV-1, with A498 and with Malme-3M was > 100 µM (inactive) each time. The GI50 in the assay with SNB-75, with MDA-MB-435, with MDA-MB-231, in the assay with HT-29, with U-251 and in the assay with CCRF-CEM was > 100 µM (inactive) throughout. Besides, the GI50 in the assay on SK-MEL-28 and in the assay on EKVX was > 100 µM (inactive) in each case.

Take `CC12CP(=O)(c3ccccc3)CC1c1ccccc1C2c1ccccc1` (stereo not drawn): the GI50 in the assay with RXF 393 was 20.8 µM (inactive); in the assay with SF-295, 15.6 µM (inactive); with IGROV-1, 3.44 µM (inactive); with A498 it was 27.7 µM (inactive); in the assay on Malme-3M, 15.6 µM (inactive); in the assay with MDA-MB-435 it was 15.2 µM (inactive). Also, the GI50 with HOP-92 is 22.1 µM (inactive); in the assay on MDA-MB-231, 18.5 µM (inactive); in the assay on HT-29 it was 15.5 µM (inactive); with U-251, 16.5 µM (inactive); with CCRF-CEM, 3.04 µM (inactive); in the assay on SK-MEL-28, 29.4 µM (inactive). Besides, the GI50 in the assay on EKVX is 17.9 µM (inactive).

Regarding `CCCC/C=C/C/C=C/CCCCCCCCC(=O)OCC1CCCN2CCCCC12` (stereo not drawn), the GI50 in the assay on RPMI-8226 was > 100 µM (inactive); in the assay with RXF 393 it was > 100 µM (inactive); with UACC-257, 63.2 µM (inactive); in the assay with SF-295 it was > 100 µM (inactive); in the assay on A498, > 100 µM (inactive); in the assay on Malme-3M, 87.5 µM (inactive). The GI50 in the assay with SNB-75 was > 100 µM (inactive); in the assay with MDA-MB-435, > 100 µM (inactive); in the assay with HOP-92 it was 31.7 µM (inactive); in the assay with MDA-MB-231, > 100 µM (inactive); in the assay on HT-29, > 100 µM (inactive); in the assay on U-251, > 100 µM (inactive). For the same compound, the GI50 with CCRF-CEM is 28.5 µM (inactive); in the assay with SK-MEL-28, > 100 µM (inactive); in the assay on EKVX, 54.6 µM (inactive).

Turning to `O=c1c(Cl)nsnc1Cl`, the GI50 in the assay on RPMI-8226 was 1.54 µM (inactive); with RXF 393, 12.1 µM (inactive); with UACC-257 it was 10.4 µM (inactive); with SF-295, 18.4 µM (inactive); in the assay on IGROV-1, 16.4 µM (inactive); with Malme-3M it was 6.38 µM (inactive). The GI50 in the assay with SNB-75 was 22.6 µM (inactive); with MDA-MB-435, 14.2 µM (inactive); with HOP-92 it was 0.665 µM (active); with MDA-MB-231, 19.3 µM (inactive); in the assay on HT-29, 24.2 µM (inactive); with U-251, 15.1 µM (inactive). Further, the GI50 is 0.984 µM (active) with CCRF-CEM, 2.02 µM (inactive) in the assay on NCI-H522, 18.3 µM (inactive) with SK-MEL-28 and 25.6 µM (inactive) with EKVX.

For `O=C(/C=C1\Nc2ccccc2N=C1NC12CC3CC(CC(C3)C1)C2)c1ccc(Br)cc1`, the GI50 with RPMI-8226, in the assay on RXF 393, in the assay with UACC-257, in the assay on SF-295, in the assay with IGROV-1 and with A498 was > 10 µM (inactive) in each case. The GI50 with Malme-3M, in the assay with SNB-75, in the assay on MDA-MB-435, in the assay on MDA-MB-231, with HT-29 and in the assay with U-251 was > 10 µM (inactive) in each case. Further, the GI50 in the assay with CCRF-CEM, with NCI-H522, with SK-MEL-28 and in the assay with EKVX was > 10 µM (inactive) throughout.

In the case of `O=C1/C(=N\NC(=S)Nc2ccc(Cl)cc2)c2cc([N+](=O)[O-])ccc2N1CN1CCOCC1`, the GI50 is 7.19 µM (inactive) in the assay with RXF 393; 13.2 µM (inactive) in the assay on UACC-257; 4.97 µM (inactive) in the assay on SF-295; 4.19 µM (inactive) in the assay on IGROV-1; 6.17 µM (inactive) in the assay on Malme-3M; 12.8 µM (inactive) with SNB-75. For the same compound, the GI50 in the assay on MDA-MB-435 was 6.38 µM (inactive); with HOP-92 it was 8.47 µM (inactive); with MDA-MB-231, 15 µM (inactive); with U-251, 7.18 µM (inactive); in the assay on CCRF-CEM, 2.85 µM (inactive); in the assay on NCI-H522, 6.79 µM (inactive). Further, the GI50 with SK-MEL-28 was 10.9 µM (inactive).

As for `NC1(c2cc3ccccc3s2)CCCCCC1`, the GI50 in the assay on RXF 393 was 12.7 µM (inactive); with UACC-257, 16.3 µM (inactive); in the assay on SF-295, 18.3 µM (inactive); with IGROV-1 it was 14.7 µM (inactive); with A498 it was 20.7 µM (inactive); in the assay with SNB-75, 11.1 µM (inactive). Besides, the GI50 with MDA-MB-435 was 16.1 µM (inactive); in the assay on HOP-92 it was 14 µM (inactive); in the assay on MDA-MB-231, 15.7 µM (inactive); with HT-29, 14.2 µM (inactive); in the assay on U-251 it was 15.7 µM (inactive); in the assay with CCRF-CEM, 16 µM (inactive). Besides, the GI50 in the assay on SK-MEL-28 was 16.7 µM (inactive); with EKVX, 18.7 µM (inactive).

`CC(=O)OCC1OC(n2c(C)c(/N=N/c3ccccc3)c(C)c(C#N)c2=S)C(OC(C)=O)C(OC(C)=O)C1OC(C)=O` (stereo not drawn): the GI50 with RPMI-8226 was > 100 µM (inactive); in the assay with RXF 393, 14.4 µM (inactive); in the assay on UACC-257 it was > 100 µM (inactive); in the assay with SF-295, 15 µM (inactive); in the assay on IGROV-1, 99.1 µM (inactive); in the assay on Malme-3M, 46.3 µM (inactive). In addition, the GI50 with SNB-75 is 1.85 µM (inactive); with MDA-MB-435, > 100 µM (inactive); in the assay on HOP-92, 8.99 µM (inactive); in the assay on MDA-MB-231, 20.6 µM (inactive); in the assay with HT-29, > 100 µM (inactive); with U-251, > 10 µM (inactive). Besides, the GI50 with CCRF-CEM and in the assay with SK-MEL-28 was > 100 µM (inactive) throughout.

Turning to `COc1ccc(/C=C2/S/C(=N\c3ccccc3)N(NC(=O)Cc3ccccc3)C2=O)c(OC)c1`, the GI50 with RPMI-8226, in the assay with RXF 393, with UACC-257, in the assay on SF-295, in the assay with IGROV-1 and in the assay with A498 was > 100 µM (inactive) throughout. Further, the GI50 with SNB-75 is > 100 µM (inactive); with MDA-MB-435, > 100 µM (inactive); in the assay on HOP-92, 3.37 µM (inactive); in the assay on MDA-MB-231 it was 69 µM (inactive); in the assay on HT-29 it was > 100 µM (inactive); in the assay on U-251 it was > 100 µM (inactive). For the same compound, the GI50 in the assay with CCRF-CEM was 82.6 µM (inactive); with SK-MEL-28 it was > 100 µM (inactive); with EKVX, > 100 µM (inactive).

Consider `CC(C)(C)OC(=O)NC12C3C4C1C1C2C3C41NC(=O)OC(C)(C)C` (stereo not drawn), for which the GI50 in the assay on RXF 393 is 28.5 µM (inactive); in the assay on UACC-257, 39.4 µM (inactive); in the assay on SF-295, 48.1 µM (inactive); in the assay with IGROV-1, > 100 µM (inactive); in the assay with A498 it was 50.5 µM (inactive); with MDA-MB-435, 51.9 µM (inactive). Further, the GI50 was 68.1 µM (inactive) with HOP-92; 26 µM (inactive) in the assay on MDA-MB-231; 26.9 µM (inactive) in the assay on HT-29; 37.8 µM (inactive) in the assay on U-251; 21.3 µM (inactive) in the assay on CCRF-CEM; 63.2 µM (inactive) with NCI-H522. Also, the results for the GI50 with SK-MEL-28 and in the assay on EKVX were 51.4 µM (inactive) and 26.9 µM (inactive), respectively.

As to `CC(=O)OCC1OC(n2c(N)c(C#N)c(-c3cccc(Cl)c3)c(C#N)c2=S)C(OC(C)=O)C(OC(C)=O)C1OC(C)=O` (stereo not drawn), the GI50 is 10.9 µM (inactive) in the assay on RPMI-8226; 3.9 µM (inactive) in the assay on RXF 393; 22 µM (inactive) in the assay on UACC-257; 31.2 µM (inactive) in the assay on SF-295; 30.5 µM (inactive) in the assay on IGROV-1; 20.6 µM (inactive) in the assay on A498. For the same compound, the GI50 was 25.2 µM (inactive) with Malme-3M; 22.2 µM (inactive) in the assay on SNB-75; 15.4 µM (inactive) with MDA-MB-435; 23 µM (inactive) with HOP-92; 18.9 µM (inactive) with MDA-MB-231; 24.5 µM (inactive) in the assay on HT-29. For the same compound, the GI50 is 22.8 µM (inactive) with U-251, 3.31 µM (inactive) in the assay with CCRF-CEM, 38.7 µM (inactive) in the assay on SK-MEL-28 and 27.2 µM (inactive) with EKVX.

With `N=c1oc2ccc3ccccc3c2cc1C(N)=O`, the GI50 in the assay with RPMI-8226 was > 100 µM (inactive); in the assay on RXF 393, > 100 µM (inactive); in the assay with UACC-257, > 100 µM (inactive); in the assay on IGROV-1, 21.6 µM (inactive); in the assay with A498, 43.7 µM (inactive); in the assay with SNB-75, 71.9 µM (inactive). Further, the GI50 with MDA-MB-435 was 53.6 µM (inactive); in the assay on HOP-92 it was 53 µM (inactive); in the assay on MDA-MB-231, 25.9 µM (inactive); in the assay with HT-29, 38.7 µM (inactive); with U-251 it was 94.6 µM (inactive); in the assay with CCRF-CEM, 35.9 µM (inactive). Further, the GI50 with SK-MEL-28 was 44.5 µM (inactive).

Take `Cc1cc([C@H](C#N)c2nc3ccccc3s2)nc(Cl)n1`: the GI50 with RPMI-8226 is 2.3 µM (inactive); in the assay on RXF 393 it was 7.4 µM (inactive); in the assay with UACC-257, 5.41 µM (inactive); in the assay with SF-295, 15.5 µM (inactive); with IGROV-1, 3.52 µM (inactive); in the assay on A498, 15.2 µM (inactive). The GI50 was 3.81 µM (inactive) in the assay with Malme-3M; 2.21 µM (inactive) in the assay on SNB-75; 2.99 µM (inactive) with MDA-MB-435; 2.32 µM (inactive) in the assay with HOP-92; 3 µM (inactive) in the assay with MDA-MB-231; 3.88 µM (inactive) in the assay with HT-29. The GI50 with U-251 was 2.86 µM (inactive); in the assay with CCRF-CEM, 3.82 µM (inactive); in the assay on SK-MEL-28, 6.67 µM (inactive); in the assay with EKVX, 18.6 µM (inactive).
